Reference: paper PMC6199744, “Development of Chemical Proteomics for the Folateome and Analysis of the Kinetoplastid Folateome” (ACS Infectious Diseases, 2018)
Where two headings read alike, the source gives them in different places.

How the values were obtained:
Type in all cases: binding
[1] = target: T1, HeLa cell extract proteins (Homo sapiens, UniProt O95619)
T1 construct: endogenous in cells; host or cells: HeLa cell extract

[2] = target: T2, HeLa cell extract proteins (Homo sapiens, UniProt Q53G59)
T2 construct: endogenous in cells; host or cells: HeLa cell extract
T2 sequence (Q53G59 1-568): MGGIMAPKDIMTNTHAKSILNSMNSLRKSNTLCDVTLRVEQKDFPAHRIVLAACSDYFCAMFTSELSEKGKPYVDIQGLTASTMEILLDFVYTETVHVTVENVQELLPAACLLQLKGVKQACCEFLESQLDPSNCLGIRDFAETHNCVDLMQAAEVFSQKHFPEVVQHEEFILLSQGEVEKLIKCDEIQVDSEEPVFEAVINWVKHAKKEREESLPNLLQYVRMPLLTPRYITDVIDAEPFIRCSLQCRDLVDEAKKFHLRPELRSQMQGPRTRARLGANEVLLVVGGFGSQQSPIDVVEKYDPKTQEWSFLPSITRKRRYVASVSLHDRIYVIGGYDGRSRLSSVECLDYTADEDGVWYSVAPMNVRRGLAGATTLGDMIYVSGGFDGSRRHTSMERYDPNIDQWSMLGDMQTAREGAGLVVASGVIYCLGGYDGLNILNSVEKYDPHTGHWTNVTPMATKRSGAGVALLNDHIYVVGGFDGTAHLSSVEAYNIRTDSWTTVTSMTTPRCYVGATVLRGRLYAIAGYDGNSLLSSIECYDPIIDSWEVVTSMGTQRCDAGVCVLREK

[3] = target: T3, HeLa cell extract proteins (Homo sapiens, UniProt P40939)
T3 construct: endogenous in cells; host or cells: HeLa cell extract

[4] = target: T4, HeLa cell extract proteins (Homo sapiens, UniProt P05455)
T4 construct: endogenous in cells; host or cells: HeLa cell extract
T4 sequence (P05455 1-408): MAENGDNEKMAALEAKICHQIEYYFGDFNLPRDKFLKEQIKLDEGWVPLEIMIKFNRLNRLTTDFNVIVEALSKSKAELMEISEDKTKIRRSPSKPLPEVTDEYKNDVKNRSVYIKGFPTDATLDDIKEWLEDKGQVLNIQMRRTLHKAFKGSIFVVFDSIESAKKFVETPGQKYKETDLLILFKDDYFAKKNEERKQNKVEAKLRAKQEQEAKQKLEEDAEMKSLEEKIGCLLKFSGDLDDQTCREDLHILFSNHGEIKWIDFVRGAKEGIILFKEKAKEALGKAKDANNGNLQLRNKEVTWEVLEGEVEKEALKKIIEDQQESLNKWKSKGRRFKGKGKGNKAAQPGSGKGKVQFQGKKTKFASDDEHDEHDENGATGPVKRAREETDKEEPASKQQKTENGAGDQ

[5] = target: T5, HeLa cell extract proteins (Homo sapiens, UniProt Q9UL46)
T5 construct: endogenous in cells; host or cells: HeLa cell extract

[6] = target: T6, HeLa cell extract proteins (Homo sapiens, UniProt Q53GQ0)
T6 construct: endogenous in cells; host or cells: HeLa cell extract
T6 sequence (Q53GQ0 1-312): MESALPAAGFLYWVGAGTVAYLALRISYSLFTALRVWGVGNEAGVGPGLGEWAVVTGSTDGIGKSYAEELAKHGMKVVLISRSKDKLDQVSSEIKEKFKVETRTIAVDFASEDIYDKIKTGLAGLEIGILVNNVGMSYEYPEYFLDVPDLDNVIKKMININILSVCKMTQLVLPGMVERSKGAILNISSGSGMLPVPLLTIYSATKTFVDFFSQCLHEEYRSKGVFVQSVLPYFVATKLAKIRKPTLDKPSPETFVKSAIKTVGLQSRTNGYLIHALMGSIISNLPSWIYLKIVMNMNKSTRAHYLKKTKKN

[7] = target: T7, HeLa cell extract proteins (Homo sapiens, UniProt O75608)
T7 construct: endogenous in cells; host or cells: HeLa cell extract

[8] = target: T8, HeLa cell extract proteins (Homo sapiens, UniProt Q01813)
T8 construct: endogenous in cells; host or cells: HeLa cell extract
T8 sequence (Q01813 1-784): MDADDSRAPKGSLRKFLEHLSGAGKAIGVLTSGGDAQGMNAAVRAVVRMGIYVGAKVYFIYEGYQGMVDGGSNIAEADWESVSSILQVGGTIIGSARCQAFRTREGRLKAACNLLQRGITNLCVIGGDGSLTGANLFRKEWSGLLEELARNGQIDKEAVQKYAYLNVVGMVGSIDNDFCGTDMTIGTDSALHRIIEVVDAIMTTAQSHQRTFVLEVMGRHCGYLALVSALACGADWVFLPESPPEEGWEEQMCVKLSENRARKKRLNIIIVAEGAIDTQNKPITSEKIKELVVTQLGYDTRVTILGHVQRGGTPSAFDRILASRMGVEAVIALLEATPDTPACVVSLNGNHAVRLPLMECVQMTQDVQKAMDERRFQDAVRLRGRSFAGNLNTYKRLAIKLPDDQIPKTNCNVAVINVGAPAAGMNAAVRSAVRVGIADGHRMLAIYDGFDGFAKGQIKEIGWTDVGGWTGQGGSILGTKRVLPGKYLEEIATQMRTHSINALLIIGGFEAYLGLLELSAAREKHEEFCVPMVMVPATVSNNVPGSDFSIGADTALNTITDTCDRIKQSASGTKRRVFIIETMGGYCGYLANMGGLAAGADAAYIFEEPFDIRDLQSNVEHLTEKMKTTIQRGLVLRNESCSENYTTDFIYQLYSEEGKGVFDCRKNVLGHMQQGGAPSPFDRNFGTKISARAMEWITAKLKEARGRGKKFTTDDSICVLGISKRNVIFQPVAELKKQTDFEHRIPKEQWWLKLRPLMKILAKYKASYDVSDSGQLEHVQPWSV

[9] = target: T9, HeLa cell extract proteins (Homo sapiens, UniProt P25705)
T9 construct: endogenous in cells; host or cells: HeLa cell extract

[10] = target: T10, HeLa cell extract proteins (Homo sapiens, UniProt P17980)
T10 construct: endogenous in cells; host or cells: HeLa cell extract

[11] = HeLa, protein SSB (LUPUS LA PROTEIN.)
[12] = captured protein HSD17B12, HeLa
[13] = HeLa, protein KLHL12 (KELCH-LIKE PROTEIN 12)

T1 sequence (O95619 whole entry): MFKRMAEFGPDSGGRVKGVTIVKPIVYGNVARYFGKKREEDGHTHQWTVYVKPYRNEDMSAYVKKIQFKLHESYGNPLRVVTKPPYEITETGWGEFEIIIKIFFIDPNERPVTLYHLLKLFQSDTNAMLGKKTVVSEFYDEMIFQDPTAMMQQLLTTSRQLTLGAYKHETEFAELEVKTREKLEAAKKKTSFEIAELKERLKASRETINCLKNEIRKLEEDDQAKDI
T5 sequence (Q9UL46 whole entry): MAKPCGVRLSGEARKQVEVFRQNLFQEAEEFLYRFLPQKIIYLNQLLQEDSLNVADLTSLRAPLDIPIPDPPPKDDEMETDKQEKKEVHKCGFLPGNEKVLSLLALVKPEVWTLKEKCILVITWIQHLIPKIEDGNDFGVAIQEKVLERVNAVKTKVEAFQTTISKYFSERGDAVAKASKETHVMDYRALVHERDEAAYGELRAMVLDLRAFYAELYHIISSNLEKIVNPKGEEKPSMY
T3 sequence (P40939 37-763): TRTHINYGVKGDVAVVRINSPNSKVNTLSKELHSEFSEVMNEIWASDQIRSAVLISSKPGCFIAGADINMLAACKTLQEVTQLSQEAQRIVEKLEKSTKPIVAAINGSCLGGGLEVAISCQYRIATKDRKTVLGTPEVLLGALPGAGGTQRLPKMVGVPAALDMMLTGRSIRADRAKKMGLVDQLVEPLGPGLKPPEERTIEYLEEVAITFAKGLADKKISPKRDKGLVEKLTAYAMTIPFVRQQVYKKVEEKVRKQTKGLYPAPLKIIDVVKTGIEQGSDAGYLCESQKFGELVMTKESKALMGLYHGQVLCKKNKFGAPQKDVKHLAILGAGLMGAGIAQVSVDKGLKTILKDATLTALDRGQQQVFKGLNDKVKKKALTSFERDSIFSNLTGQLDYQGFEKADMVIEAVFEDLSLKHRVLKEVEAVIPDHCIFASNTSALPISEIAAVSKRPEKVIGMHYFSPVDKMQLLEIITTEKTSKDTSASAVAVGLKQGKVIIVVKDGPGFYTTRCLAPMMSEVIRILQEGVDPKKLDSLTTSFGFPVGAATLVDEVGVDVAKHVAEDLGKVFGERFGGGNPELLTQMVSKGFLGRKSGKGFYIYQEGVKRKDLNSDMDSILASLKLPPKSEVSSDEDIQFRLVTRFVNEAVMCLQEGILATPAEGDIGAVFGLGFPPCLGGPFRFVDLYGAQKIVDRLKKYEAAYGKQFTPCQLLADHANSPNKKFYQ
T10 sequence (P17980 whole entry): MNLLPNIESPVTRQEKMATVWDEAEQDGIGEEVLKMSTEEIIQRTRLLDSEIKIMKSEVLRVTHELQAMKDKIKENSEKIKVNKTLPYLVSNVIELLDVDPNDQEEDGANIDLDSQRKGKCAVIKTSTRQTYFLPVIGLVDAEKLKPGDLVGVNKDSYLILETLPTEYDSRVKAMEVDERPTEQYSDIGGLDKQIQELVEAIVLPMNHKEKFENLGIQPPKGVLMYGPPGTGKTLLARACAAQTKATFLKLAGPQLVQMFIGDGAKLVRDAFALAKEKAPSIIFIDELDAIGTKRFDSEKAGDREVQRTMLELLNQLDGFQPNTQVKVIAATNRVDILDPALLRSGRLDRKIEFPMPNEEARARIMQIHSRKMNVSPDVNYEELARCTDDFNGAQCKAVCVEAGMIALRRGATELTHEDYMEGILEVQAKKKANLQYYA
T7 sequence (O75608 whole entry): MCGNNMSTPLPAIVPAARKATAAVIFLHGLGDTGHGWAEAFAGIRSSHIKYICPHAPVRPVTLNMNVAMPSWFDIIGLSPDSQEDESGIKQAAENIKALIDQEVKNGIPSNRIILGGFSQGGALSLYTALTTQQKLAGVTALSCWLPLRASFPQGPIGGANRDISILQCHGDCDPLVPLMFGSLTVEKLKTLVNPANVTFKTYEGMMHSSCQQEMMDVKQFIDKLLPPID
T9 sequence (P25705 44-553): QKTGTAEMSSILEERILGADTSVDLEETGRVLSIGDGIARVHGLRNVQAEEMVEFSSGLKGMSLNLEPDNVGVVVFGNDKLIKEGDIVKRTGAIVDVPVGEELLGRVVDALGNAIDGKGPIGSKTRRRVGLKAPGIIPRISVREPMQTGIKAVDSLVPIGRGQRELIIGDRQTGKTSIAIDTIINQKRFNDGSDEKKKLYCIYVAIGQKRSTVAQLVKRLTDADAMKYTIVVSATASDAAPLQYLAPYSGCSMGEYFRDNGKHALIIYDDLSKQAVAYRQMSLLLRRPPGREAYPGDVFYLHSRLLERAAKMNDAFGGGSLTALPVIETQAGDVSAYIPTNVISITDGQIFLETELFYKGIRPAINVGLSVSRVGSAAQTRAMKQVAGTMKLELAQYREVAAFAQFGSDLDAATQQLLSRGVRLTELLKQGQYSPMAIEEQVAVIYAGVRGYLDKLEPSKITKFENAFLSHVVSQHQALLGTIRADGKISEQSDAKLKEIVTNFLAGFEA

Compound | fold changes relative to vehicle control ([1]; HeLa, protein YEATS4) | fold changes relative to vehicle control ([2]; protein KLHL12, HeLa) | fold changes relative to vehicle control ([3]; protein HADHA, HeLa) | fold changes relative to vehicle control [4, 11] [fold] | fold changes relative to vehicle control ([5]; protein PSME2, HeLa) | fold changes relative to vehicle control [6, 12] | fold changes relative to vehicle control ([7]; HeLa, protein LYPLA1) | fold changes relative to vehicle control ([8]; captured protein PFKP, HeLa) | fold changes relative to vehicle control ([9]; HeLa, protein ATP5A1) | fold changes relative to vehicle control ([10]; protein PSMC3, HeLa) | fold changes relative to vehicle control ([1]; HeLa, captured protein YEATS4) | fold changes relative to vehicle control [2, 13] | fold changes relative to vehicle control ([3]; HeLa, protein HADHA) | fold changes relative to vehicle control ([4]; HeLa, protein SSB) | fold changes relative to vehicle control ([5]; HeLa, protein PSME2) | fold changes relative to vehicle control ([6]; protein HSD17B12, HeLa) | fold changes relative to vehicle control ([7]; HeLa, captured protein LYPLA1) | fold changes relative to vehicle control ([8]; HeLa, protein PFKP) | fold changes relative to vehicle control ([9]; HeLa, captured protein ATP5A1) | other results
Nc1nc2cccc(-c3ccccc3)c2n1Cc1ccc(Cl)c(Cl)c1 [compound 3] | 0.99 | 0.97 | 1.07 | 1.01 | 0.93 | 1.15 | 0.71 | 1.02 | 0.87 | 1.03 | – | – | – | – | – | – | – | – | – | –
Nc1nc2[nH]cc(CCc3ccc(C(=O)N[C@@H](CCC(=O)O)C(=O)O)cc3)c2c(=O)[nH]1 [PTX, pemetrexed] | – | – | – | – | – | – | – | – | – | – | – | – | – | – | – | – | – | – | – | fold changes relative to vehicle control [1]: 0.99; fold changes relative to vehicle control [2]: 1.07; fold changes relative to vehicle control [3]: 0.89; fold changes relative to vehicle control [4]: 1.12; fold changes relative to vehicle control [5]: 0.9; fold changes relative to vehicle control [6]: 0.91; fold changes relative to vehicle control [7]: 0.93; fold changes relative to vehicle control [8]: 0.9; fold changes relative to vehicle control [9]: 0.94; fold changes relative to vehicle control [10]: 1
Nc1nc2c(c(=O)[nH]1)N(C=O)C(CNc1ccc(C(=O)N[C@@H](CCC(=O)O)C(=O)O)cc1)CN2 (stereo partly shown) [LEU, leucovorin] | – | – | – | – | – | – | – | – | – | 1.02 | 1.09 | 1.36 | 0.9 | 1.03 | 0.94 | 0.78 | 0.89 | 0.88 | 0.99 | –
CCCCCCOc1cccc(Cc2cnc(N)nc2N)c1 [compound 2] | 0.92 | 1.3 | 1.45 | 2.04 | 1.38 | 0.91 | 1.1 | 1.01 | 0.97 | 1.46 | – | – | – | – | – | – | – | – | – | –
NCCOCCOCC(=O)Nc1nc2ncc(CNc3ccc(C(=O)NC(CCC(=O)O)C(=O)O)cc3)nc2c(=O)[nH]1 (stereo not shown) [compound 6] | – | – | – | – | – | – | – | – | – | 1.17 | 0.81 | 1.05 | 1.05 | 1.31 | 0.95 | 0.96 | 0.98 | 0.95 | 0.95 | –
CCCCCCOc1ccc(Cc2cnc(N)nc2N)cc1 [compound 1] | 1.04 | 1.15 | 1 | 1.38 | 1.01 | 0.87 | 0.92 | 1.05 | 1 | 1.24 | – | – | – | – | – | – | – | – | – | –
NCCCNc1ccc(C(=O)NC(CCC(=O)O)C(=O)O)cc1 (stereo not shown) [compound 7] | – | – | – | – | – | – | – | – | – | 1.03 | 1.29 | 1.31 | 0.99 | 0.99 | 0.89 | 1.19 | 0.92 | 0.93 | 0.99 | –
